Assay results published in patent US10669314B2, “Polypeptide” (Affibody AB, priority 2014, dated 2020).

Experiments:
[1] = test system: IL-6 trans-signaling dependent secretion of MCP-1 in HUVECs; assay: HUVEC trans-signaling assay, MCP-1 production; assay type: cell-based, human; conditions: fusions with ABD variant PP013, in the presence of HSA
Method: To address the trans-signaling pathway, a second assay was used. Herein, human umbilical vein endothelial cells (HUVECs) were stimulated with hIL-6 and soluble hIL-6Rα and the readout was the production of monocyte chemoattractant protein-1 (MCP-1). HUVECs (Lonza) were grown in EGM-2 bullet kit media (Lonza) and passaged in culture no more than eight times. Cells were grown until 75% confluence before use. Cells were detached using trypsin/EDTA (Lonza), resuspended and washed once in fresh medium. Next, cells were counted and dispensed into 96 well flat bottom plates at a density of 2×10^4 cells per well. Cells were cultured overnight at 37° C. in a humidified 5% CO2 atmosphere. […] The pre-mixed solutions with the test molecules and hIL-6/hIL-6Rα were then transferred to wells containing HUVECs, which were incubated for 24 h at 37° C. in a humidified 5% CO2 atmosphere. Cell free supernatant was collected after the incubation period and human MCP-1 levels were determined by sandwich ELISA using the MCP-1 Duoset ELISA development system (R&D Systems).
Half area 96-well ELISA plates were coated with anti-MCP-1 capture antibody (R&D Systems) at a concentration of 1 μg/ml. Plates were incubated overnight at 4° C., washed twice in tap water and blocked for 1 h in PBSC. […] The absorbance was measured at 450 nm using a microplate reader (Victor^3, Perkin Elmer).

[2] = test system: IL-6 triggered serum amyloid-A (SAA) protein release; assay: Serum Amyloid A (SAA) mouse model; assay type: in vivo; conditions: 25 mg/kg s.c. 9 h before hIL-6 5 μg/kg i.p.; Balb/c mice
Method: The IL-6 targeting Z variant Z06814 (SEQ ID NO:1512) and a control Z variant Z04726 (SEQ ID NO:1535) binding an irrelevant target, were cloned and produced in fusion with the ABD variant PP013 (SEQ ID NO:1554) as described in Example 2. Four groups of Balb/c mice (n=8) were injected subcutaneously (s.c.) with various doses (0, 0.025, 2.5 or 25 mg/kg body weight) of Z06814-ABD 9 h prior to intraperitoneal (i.p.) administration of hIL-6 at 5 μg/kg (R&D Systems). A fifth group of mice (n=8) received 25 mg/kg of Z04726-ABD. Two additional control groups of mice received PBS (n=4) and 25 mg/kg of Z06814-ABD (n=8), respectively, but no subsequent IL-6 injection. After 20 h, the blood was taken by cardiac puncture and serum was collected.
Serum was assessed for the content of murine SAA by ELISA (Tridelta) according to the manufacturer's instructions. In brief, diluted serum samples were added to SAA-precoated plates together with anti-SAA-HRP. The plates were incubated for 1 h and then washed four times. TMB substrate was added for 20 min and the reaction was stopped with stop solution. The absorbance was measured at 450 nm using a microplate reader (Victor^3, Perkin Elmer).

## Z03638: control Z variant binding an irrelevant target, tested in fusion with ABD variant PP013 [reference compound]
[1]
  inhibition of IL-6 mediated trans-signaling in HUVECs: did not

## Z04726-ABD: control Z variant Z04726 (SEQ ID NO:1553) binding an irrelevant target, in fusion with ABD variant PP013 [reference compound]
[2]
  SAA protein levels in serum: 500 to 600 µg/mL
